# Source: PubChem BioAssay AID330 (DTP/NCI, 2004)
# Where “and” joins values, the source holds several entries; their conditions need not be identical. Equal entries are not always repeated. Inconclusive results and toxic doses are left out. Numbered stars: 1 amine (or outer) side, 2 acyl side, 3 side chain; on linkers, the order of the positions; unused ones are H or OH. Bridge positions count the residues as written; N and C are the ends. Square brackets hold non-standard residues; d marks the D form. Peptide text beside a SMILES is read from it. * marks the point of attachment. ξ: configuration not given here. ξOrn(4,5-diOH) = O=C(C(CC(O)C(O)N[*:3])N[*:1])[*:2]; ξhTyr(βξ-OH,γξ-OH) = NC(C(=O)O)C(O)C(O)c1ccc(O)cc1; ξPro(3ξ-OH,4ξ-Me) = CC1CNC(C(=O)O)C1O; X22 = CCCCC/C=C/C/C=C\CCCCCCCC(=O)*; Hyp = O=C(O)[CH]1C[CH](O)CN1
# Test system: P388 leukemia ip, CD2F1 mice, survival T/C
# Assay: NCI In Vivo Anticancer Drug Screen. Data for tumor model P388 Leukemia (intraperitoneal) in CD2F1 (CDF1) mice
# Details: endpoint: median survival time, higher = longer survival
# Method in brief: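 Mice carrying the transplanted tumor received test compound or vehicle. Survival was recorded in each group, and the value is the treated-group measurement divided by that of the vehicle-treated control group.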
# [1] = dose: 100.0 mg/kg/injection, schedule: Q01DX009 (ip), vehicle: saline with Tween-80
# [2] = dose: 200.0 mg/kg/injection, schedule: Q01DX009 (ip), vehicle: saline with Tween-80
# [3] = dose: 400.0 mg/kg/injection, schedule: Q01DX009 (ip), vehicle: saline with Tween-80
# [4] = dose: 100.0 mg/kg/injection, schedule: Q01DX001 (ip), vehicle: saline with Tween-80
# [5] = dose: 200.0 mg/kg/injection, schedule: Q01DX001 (ip), vehicle: saline with Tween-80
# [6] = dose: 400.0 mg/kg/injection, schedule: Q01DX001 (ip), vehicle: saline with Tween-80
# [7] = dose: 60.0 mg/kg/injection, schedule: Q01DX005 (ip), vehicle: saline with Tween-80
# [8] = dose: 120.0 mg/kg/injection, schedule: Q01DX005 (ip), vehicle: saline with Tween-80
# [9] = dose: 240.0 mg/kg/injection, schedule: Q01DX005 (ip), vehicle: saline with Tween-80
# [10] = dose: 50.0 mg/kg/injection, schedule: Q01DX009 (ip), vehicle: saline
# [11] = dose: 100.0 mg/kg/injection, schedule: Q01DX009 (ip), vehicle: saline
# [12] = dose: 200.0 mg/kg/injection, schedule: Q01DX009 (ip), vehicle: saline
# [13] = dose: 25.0 mg/kg/injection, schedule: Q01DX009 (ip), vehicle: saline with Tween-80
# [14] = dose: 50.0 mg/kg/injection, schedule: Q01DX009 (ip), vehicle: saline with Tween-80
# [15] = dose: 50.0 mg/kg/injection, schedule: Q04DX003 (ip), vehicle: saline with Tween-80
# [16] = dose: 50.0 mg/kg/injection, schedule: Q01DX005 (ip), vehicle: saline with Tween-80
# [17] = dose: 100.0 mg/kg/injection, schedule: Q01DX005 (ip), vehicle: saline with Tween-80
# [18] = dose: 200.0 mg/kg/injection, schedule: Q01DX005 (ip), vehicle: saline with Tween-80
# [19] = dose: 100.0 mg/kg/injection, schedule: Q04DX003 (ip), vehicle: saline with Tween-80
# [20] = dose: 200.0 mg/kg/injection, schedule: Q04DX003 (ip), vehicle: saline with Tween-80
# [21] = dose: 400.0 mg/kg/injection, schedule: Q04DX003 (ip), vehicle: saline with Tween-80
compound,measurement,setting,value
COC(=N)c1nc2c(N)nc(-c3ccccc3)nc2[nH]c1=O,T/C,[1],98 % of control
same,T/C,[2],98 % of control
same,T/C,[3],97 % of control
COc1c2occc2c(S(=O)(=O)Cl)c2ccc(=O)oc12,T/C,[4],95 % of control
same,T/C,[5],109 % of control
same,T/C,[6],100 % of control
CC(C)(C)C1=NN=C(C(C)(C)C)CSC1,T/C,[7],108 % of control
same,T/C,[8],103 % of control
same,T/C,[9],104 % of control
Nc1nc2c(cnn2C2CCCO2)c(=O)[nH]1 (stereo not given),T/C,[4],100 % of control
same,T/C,[5],106 % of control
same,T/C,[6],96 % of control
Cc1cnc(Sc2c([N+](=O)[O-])ncn2C)nc1,T/C,[10],109 % of control
same,T/C,[11],104 % of control
same,T/C,[12],109 % of control
Cc1ccc(N=NN(C)C)cc1,T/C,"dose: 12.5 mg/kg/injection, schedule: Q01DX009 (ip), vehicle: saline with Tween-80",110 % of control
same,T/C,"dose: 12.5 mg/kg/injection, schedule: Q04DX003 (ip), vehicle: saline with Tween-80",104 % of control
same,T/C,[13],115 % of control
same,T/C,"dose: 25.0 mg/kg/injection, schedule: Q04DX003 (ip), vehicle: saline with Tween-80",100 % of control
same,T/C,"dose: 33.0 mg/kg/injection, schedule: Q01DX009 (ip), vehicle: saline with Tween-80",118 % of control
same,T/C,[14],122 % of control
same,T/C,[15],109 % of control
COC1/C=C\OC2(C)Oc3c(C)c(O)c4c(c3C2=O)C(=O)C=C(NC(=O)C(C)=C/C=C\C(C)C(=O)C(C)C2OC(C)(C)OC(C1C)C2C)C4=O (stereo not given),T/C,"dose: 6.25 mg/kg/injection, schedule: Q04DX003 (ip), vehicle: other",100 % of control
same,T/C,"dose: 12.5 mg/kg/injection, schedule: Q04DX003 (ip), vehicle: distilled water + Tween-80",106 % of control and 110 % of control
same,T/C,"dose: 12.5 mg/kg/injection, schedule: Q04DX003 (ip), vehicle: other",107 % of control
same,T/C,"dose: 25.0 mg/kg/injection, schedule: Q04DX003 (ip), vehicle: distilled water + Tween-80",101 % of control and 121 % of control
same,T/C,"dose: 25.0 mg/kg/injection, schedule: Q04DX003 (ip), vehicle: other",156 % of control
same,T/C,"dose: 50.0 mg/kg/injection, schedule: Q04DX003 (ip), vehicle: distilled water + Tween-80",91 % of control and 95 % of control
same,T/C,"dose: 50.0 mg/kg/injection, schedule: Q04DX003 (ip), vehicle: other",108 % of control
same,T/C,"dose: 100.0 mg/kg/injection, schedule: Q04DX003 (ip), vehicle: distilled water + Tween-80",103 % of control and 97 % of control
same,T/C,"dose: 100.0 mg/kg/injection, schedule: Q04DX003 (ip), vehicle: other",118 % of control
same,T/C,"dose: 200.0 mg/kg/injection, schedule: Q04DX003 (ip), vehicle: distilled water + Tween-80",113 % of control and 117 % of control
C=CC1CC(NC(=O)c2ccccc2)C(=O)O1 (stereo not given),T/C,[16],101 % of control
same,T/C,[17],104 % of control
same,T/C,[18],99 % of control
OC1CC2CC1CC2O (stereo not given),T/C,[10],101 % of control
same,T/C,[11],98 % of control
same,T/C,[12],104 % of control
O=c1c2ccccc2nc2n1CCc1c-2[nH]c2ccccc12,T/C,"dose: 3.75 mg/kg/injection, schedule: Q01DX009 (ip), vehicle: saline with Tween-80",93 % of control
same,T/C,"dose: 7.5 mg/kg/injection, schedule: Q01DX009 (ip), vehicle: saline with Tween-80",98 % of control
same,T/C,"dose: 15.0 mg/kg/injection, schedule: Q01DX009 (ip), vehicle: saline with Tween-80",93 % of control
"CCCCC/C=C/C/C=C\CCCCCCCC(=O)NC1CC(O)C(O)NC(=O)C2C(O)C(C)CN2C(=O)C(C(C)O)NC(=O)C(C(O)C(O)c2ccc(O)cc2)NC(=O)C2CC(O)CN2C(=O)C(C(C)O)NC1=O (stereo not drawn) (X22-[ξOrn(4,5-diOH)]T[Hyp][ξhTyr(βξ-OH,γξ-OH)]T[ξPro(3ξ-OH,4ξ-Me)]; lactam 1-C; configuration not given here)",T/C,"dose: 0.25 mg/kg/injection, schedule: Q01DX009 (ip), vehicle: lactate",100 % of control
same,T/C,"dose: 0.5 mg/kg/injection, schedule: Q01DX009 (ip), vehicle: lactate",104 % of control
O=C(O)CCCOC(C[N+](=O)[O-])C(Cl)(Cl)Cl (stereo not given),T/C,[14],95 % of control
same,T/C,[1],100 % of control
same,T/C,[2],96 % of control
Clc1nc2nc3n(c2nc1Cl)CCC3(Br)Br,T/C,[7],97 % of control
same,T/C,[8],109 % of control
same,T/C,[9],103 % of control
c1ccc(Cn2nnnc2-c2ccccc2)cc1,T/C,[19],100 % of control
same,T/C,[20],96 % of control
same,T/C,[21],88 % of control
CCOC(=O)C(C(=O)OCC)=C(C)C,T/C,"dose: 21.3 mg/kg/injection, schedule: Q01DX009 (ip), vehicle: saline with Tween-80",93 % of control
same,T/C,"dose: 42.5 mg/kg/injection, schedule: Q01DX009 (ip), vehicle: saline with Tween-80",90 % of control
same,T/C,"dose: 85.0 mg/kg/injection, schedule: Q01DX009 (ip), vehicle: saline with Tween-80",91 % of control
same,T/C,"dose: 170.0 mg/kg/injection, schedule: Q01DX009 (ip), vehicle: saline with Tween-80",93 % of control
same,T/C,"dose: 177.0 mg/kg/injection, schedule: Q01DX009 (ip), vehicle: saline with Tween-80",123 % of control
same,T/C,[3],120 % of control
COc1ccc(C(Nc2ccccn2)c2cc(C(C)(C)C)c(O)c(C(C)(C)C)c2)cc1 (stereo not given),T/C,[16],88 % of control
same,T/C,[17],91 % of control
same,T/C,[18],95 % of control
CCCOC(=O)C(F)C(Br)C(=O)OCCC (stereo not given),T/C,[13],100 % of control and 107 % of control
same,T/C,[14],105 % of control and 120 % of control
same,T/C,[1],111 % of control and 118 % of control
same,T/C,[2],123 % of control
CN1CCC(c2ccccc2)(c2ccccc2)C(=O)C1,T/C,[14],100 % of control and 104 % of control
same,T/C,[1],109 % of control and 111 % of control and 114 % of control
same,T/C,[2],118 % of control and 123 % of control
Cn1ncc2c(Cl)ncnc21,T/C,"dose: 50.0 mg/kg/injection, schedule: Q01DX009 (ip), vehicle: Klucel (hydroxypropylcellulose) (HPC)",91 % of control
same,T/C,"dose: 100.0 mg/kg/injection, schedule: Q01DX009 (ip), vehicle: Klucel (hydroxypropylcellulose) (HPC)",93 % of control
same,T/C,"dose: 200.0 mg/kg/injection, schedule: Q01DX009 (ip), vehicle: Klucel (hydroxypropylcellulose) (HPC)",107 % of control
COC(=O)C(OC)(OC)C(O)C(C)C (stereo not given),T/C,"dose: 60.0 mg/kg/injection, schedule: Q01DX005 (ip), vehicle: saline",104 % of control
same,T/C,"dose: 120.0 mg/kg/injection, schedule: Q01DX005 (ip), vehicle: saline",103 % of control
same,T/C,"dose: 240.0 mg/kg/injection, schedule: Q01DX005 (ip), vehicle: saline",103 % of control
NC(=O)NC1OC(CO)C(O)C(O)C1O (stereo not given),T/C,"dose: 100.0 mg/kg/injection, schedule: Q04DX003 (ip), vehicle: saline",95 % of control
same,T/C,"dose: 200.0 mg/kg/injection, schedule: Q04DX003 (ip), vehicle: saline",95 % of control
same,T/C,"dose: 400.0 mg/kg/injection, schedule: Q04DX003 (ip), vehicle: saline",100 % of control
O=C(NCCc1ccccc1)c1ccccc1,T/C,[15],100 % of control
same,T/C,[19],90 % of control
same,T/C,[20],95 % of control
same,T/C,[21],100 % of control
CCCCNC(=S)NC(c1ccc(OC)cc1)C(CC)c1ccc(OC)cc1 (stereo not given),T/C,"dose: 100.0 mg/kg/injection, schedule: Q04DX002 (ip), vehicle: saline with Tween-80",90 % of control
same,T/C,"dose: 200.0 mg/kg/injection, schedule: Q04DX002 (ip), vehicle: saline with Tween-80",88 % of control
same,T/C,"dose: 400.0 mg/kg/injection, schedule: Q04DX002 (ip), vehicle: saline with Tween-80",90 % of control
CC(=O)CC(C)=NCC(C)N=C(C)CC(C)=O.c1cc[c]([Sn][c]2ccccc2)cc1 (stereo not given),T/C,"dose: 2.5 mg/kg/injection, schedule: Q01DX009 (ip), vehicle: saline",154 % of control
same,T/C,"dose: 5.0 mg/kg/injection, schedule: Q01DX009 (ip), vehicle: saline",158 % of control and 162 % of control
same,T/C,"dose: 10.0 mg/kg/injection, schedule: Q01DX009 (ip), vehicle: saline",185 % of control
CC(=O)Nc1ccc2c(C)cc(Cl)nc2c1,T/C,[7],95 % of control
same,T/C,[8],90 % of control
same,T/C,[9],89 % of control
